The source of these data is patent EP0150227A1, “Dipeptide derivatives and their use in determining the activity of carboxypeptidase A” (FUJIREBIO KABUSHIKI KAISHA also trading as FUJIREBIO INC., priority 1983, dated 1985).

Non-standard residues stand in square brackets, D forms with d. Residues, ends and D or L forms follow the SMILES beside them. 4Abz = Nc1ccc(C(=O)O)cc1

What all share (format): biochemical
In test [1] the test system is carboxypeptidase A. As to the kind of experiment: Spectrophotometric CP-A activity determination (hippuricase, benzoate hydroxylase, decrease of NADPH/NADH absorbance at 340 nm). How it is done:
[…] of serum (the same as used in Example 6) was added to 0.5 ml of a test reagent solution (pH 8.0) containing 10 mM p-hydroxybenzoylglycyl-L-tyrosine, 3000 U/1 hippuricase, 0.2 mM NADPH, 10000 U/1 p-hydroxybenzoate hydroxylase and 100 mM boric acid.
The decrease in the absorbance by the solution was measured at 340 nm of light at a temperature of 37°C during the course of the reaction. There was used for the measurement a reaction rate analyser in which the reaction time was five minutes. The activity value (mU/ml) of CP-A was automatically printed out in the analyser.
The calculation of activity was performed according to the following formula: [formula] wherein ε = 6.22 x 10^3 (Molecular extinction coefficient of NADPH)
The activity of CP-A was determined by repeating the procedure shown in Example 8 except that o-hydroxybenzoyl-L-isoleucyl-L-phenylalanine was used instead of p-hydroxybenzoylglycyl-L-tyrosine, salicylate hydroxylase was used instead of p-hydroxybenzoate hydroxylase, and nicotinamide adenine dinucleotide in reduced form (NADH) was used instead of NADPH.
The activity of CP-A was determined by repeating the procedure shown in Example 8 with a mixture prepared by adding 0.05 ml of serum (the same as used in Example 6) to 0.5 ml of a test reagent solution (pH 8.0) containing 30 mM p-methoxybenzoyl-L-leucyl-L-phenylalanine, 1000 U/1 hippuricase, 0.2 mM NADH, 20000 U/1 p-methoxybenzoate hydroxylase and 100 mM phosphoric acid.

Test [2] relates to carboxypeptidase A. As to the kind of experiment: Colourimetric CP-A activity determination (hippuricase, NaNO2 diazotisation, azo dye at 505 nm). The conditions noted are these: same serum as Example 6; 20 mM substrate, pH 8.0, 37°C, 20 minutes; repeated 20 times, CV 5.3%. How it is done: 0.05 ml of serum (the same as used in Example 6) containing CP-A was added to 0.5 ml of a test reagent solution (pH 8.0) containing 20 mM p-aminobenzoyl-L-alanyl-L-tyrosine, 0.5 M NaCl, 3000 U/1 hippuricase and 100 mM boric acid. After this mixture had been allowed to stand at 37°C for 20 minutes, 0.5 ml of a solution containing 2 mM NaN02 and 1 mM NaOH was added to the mixture, and the mixture was allowed to stand at room temperature for 10 minutes. 0.5 ml of a reagent solution containing 1 mM potassium l-naphthol-2-sulphate, 50 mM boric acid and 200 mM NaOH was added to the mixture. The absorbance by the solution was measured at 505 nm of light. This absorbance is referred to as Absorbance A.
Absorbance B was measured by repeating the procedure as shown above but using 0.05 ml of an aqueous solution containing 10 uM p-aminobenzoic acid instead of 0.05 ml of serum, and Absorbance C was measured by repeating the procedure as shown above but using 0.05 ml of distilled water instead of 0.05 ml of serum.
The activity value (mU/ml) of CP-A can be calculated by the following equation: [formula]

In test [3] the test system is carboxypeptidase A. Briefly: Colourimetric CP-A activity determination (hippuricase, 4-aminoantipyrine, periodate, quinonimine dye at 505 nm). Conditions: serum containing carboxypeptidase A; 10 mM substrate, pH 7.8, 37°C, 20 minutes; test repeated 20 times, CV 3.4%. As to the method: 0.1 ml of serum containing carboxypeptidase A was added to 0.5 ml of a test reagent solution of pH 7.8 containing 10 mM p-hydroxybenzoyl-L-alanyl-L-phenylalanine, 0.1 M sodium chloride, 3000 U/1 hippuricase, 2.5 mM 4-aminoantipyrine and 100 mM N-2-hydroxyethyl piperazine-N-2-ethane sulphonic acid. The mixture was incubated at 37°C for 20 minutes. 1.5 ml of a reaction termination solution containing 6.5 mM sodium periodate was added to this reaction mixture. The mixture obtained was incubated at 37°C for five minutes, so that quinonimine dye was formed. The absorbance of the reaction mixture was measured at a light wavelength of 505 nm. This absorbance is referred to as Absorbance A.
Separately, for a blank (comparison) test, in the procedure as mentioned above, 1.5 ml of a reaction termination solution containing 6.5 mM sodium […] was added to the test reagent solution before 0.1 ml of serum containing carboxypeptidase A was added to the test reagent solution. The absorbance of the blank test reagent was then measured in the same manner as described above, at a light wavelength of 505 nm. This absorbance is referred to as Absorbance B.
The activity value (mU/ml) of carboxypeptidase A can be calculated by the following equation: [formula] where ε = 12000 (Molecular extinction coefficient or guinon- imine dye)

`CC[C@H](C)[C@H](NC(=O)c1ccccc1O)C(=O)N[C@@H](Cc1ccccc1)C(=O)O` [o-hydroxybenzoyl-L-isoleucyl-L-phenylalanine] returned an Activity value in the test on carboxypeptidase A [1] (procedure of Example 8 with salicylate hydroxylase and NADH, CV 7.0%) of 1.1 mU/ml.

Regarding `C[C@H](NC(=O)c1ccc(N)cc1)C(=O)N[C@@H](Cc1ccc(O)cc1)C(=O)O` [p-aminobenzoyl-L-alanyl-L-tyrosine] (H-[4Abz]-Ala-Tyr-OH), the Activity value in the test on carboxypeptidase A [2] worked out at 1.7 mU/ml. On to `C[C@H](NC(=O)c1ccc(O)cc1)C(=O)N[C@@H](Cc1ccccc1)C(=O)O` [p-hydroxybenzoyl-L-alanyl-L-phenylalanine], for which, in the test with carboxypeptidase A [3], the Activity value is given as 5.1 mU/ml. `O=C(CNC(=O)c1ccc(O)cc1)N[C@@H](Cc1ccc(O)cc1)C(=O)O` [p-hydroxybenzoylglycyl-L-tyrosine]: the Activity value in the test on carboxypeptidase A [1] (same serum as Example 6, 10 mM substrate, pH 8.0, 37°C, 0.2 mM NADPH, p-hydroxybenzoate hydroxylase, repeated 20 times, CV 5.2%) amounted to 6.2 mU/ml. The compound `COc1ccc(C(=O)N[C@@H](CC(C)C)C(=O)N[C@@H](Cc2ccccc2)C(=O)O)cc1` [p-methoxybenzoyl-L-leucyl-L-phenylalanine] registered an Activity value in the test with carboxypeptidase A [1] (same serum as Example 6, 30 mM substrate, pH 8.0, 0.2 mM NADH, p-methoxybenzoate hydroxylase, 100 mM phosphoric acid, CV 4.7%) of 2.5 mU/ml.
